Results: US20170190671A1, “BIS(ARYL)CATECHOL DERIVATIVES AS HERBICIDES” (E I DU PONT DE NEMOURS AND COMPANY, priority 2014, published 2017)

Experiments:
Assay type in all cases: in vivo
Settings in all cases: scale 0 to 100
[1] = tested on: field bindweed (Convolvulus arvensis); experiment: Test E preemergence
In short: (§1)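 Visual ratings from 0 = no effect to 100 = complete control, scored against untreated controls after 14 to 21 days in the greenhouse. Compounds, in a non-phytotoxic solvent mix with surfactant, went onto silt loam soil right after sowing (preemergence) or onto 2–18 cm plants at the 1- to 4-leaf stage (postemergence).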

[2] = tested on: morningglory (Ipomoea coccinea); experiment: Test E preemergence
In short: as §1

[3] = tested on: dayflower (Virginia (VA) dayflower, Commelina virginica); experiment: Test E preemergence
In short: as §1

corn (Zea mays) [4] = experiment: Test E preemergence
In short: as §1

[5] = tested on: field bindweed (Convolvulus arvensis); experiment: Test E postemergence
Excerpt: (§2) Seeds of plant species selected from corn (Zea mays), soybean (Glycine max), velvetleaf (Abutilon theophrasti), cocklebur (common cocklebur, Xanthium strumarium), lambsquarters (Chenopodium album), wild poinsettia (Euphorbia heterophylla), palmer pigweed (Amaranthus palmeri), waterhemp (common waterhemp, Amaranthus rudis), surinam grass (Brachiaria decumbens), large (Lg) crabgrass (Digitaria sanguinalis), Brazilian crabgrass (Digitaria horizontalis), fall panicum (Panicum dichotomiflorum), giant foxtail (Setaria faberii), green foxtail (Setaria viridis), goosegrass (Eleusine indica), johnsongrass (Sorghum halepense), ragweed (common ragweed, Ambrosia elatior), barnyardgrass (Echinochloa crus-galli), sandbur (southern sandbur, Cenchrus echinatus), arrowleaf sida (Sida rhombifolia), Italian ryegrass (Lolium multiflorum), dayflower (Virginia (VA) dayflower, Commelina virginica), field bindweed (Convolvulus arvensis), morningglory (Ipomoea coccinea), nightshade (eastern black nightshade, Solanum ptycanthum), kochia (Kochia scoparia), yellow nutsedge (Cyperus esculentus), horseweed (Conyza canadensis), and hairy beggarticks (Bidens pilosa), were planted into a silt loam soil and treated preemergence with test chemicals formulated in a non-phytotoxic solvent mixture which included a surfactant.
(§3) At the same time, plants from these crop and weed species and also waterhemp_RES1, (ALS & Triazine resistant common waterhemp, Amaranthus rudis), and waterhemp_RES2, (ALS & HPPD resistant common waterhemp, Amaranthus rudis) were planted in pots containing Redi-Earth® planting medium (Scotts Company, 14111 Scottslawn Road, Marysville, Ohio 43041) comprising spaghnum peat moss, vermiculite, wetting agent and starter nutrients were treated with postemergence applications of test chemicals formulated in the same manner. Plants ranged in height from 2 to 18 cm for postemergence treatments (1- to 4-leaf stage). Treated plants and controls were maintained in a greenhouse for 14 to 21 days, after which time all species were compared to controls and visually evaluated. Plant response ratings, summarized in Table E, are based on a scale of 0 to 100 where 0 is no effect and 100 is complete control. A dash (-) response means no test result.

soybean (Glycine max) = experiment: Test E postemergence
Excerpt: as §2, §3

[6] = tested on: horseweed (Conyza canadensis); experiment: Test E postemergence
Excerpt: as §2, §3

kochia (Kochia scoparia) = experiment: Test E postemergence
Excerpt: as §2, §3

[7] = tested on: dayflower (Virginia (VA) dayflower, Commelina virginica); experiment: Test E postemergence
Excerpt: as §2, §3

[8] = tested on: hairy beggarticks (Bidens pilosa); experiment: Test E postemergence
Excerpt: as §2, §3

[9] = tested on: sandbur (southern sandbur, Cenchrus echinatus); experiment: Test E postemergence
Excerpt: as §2, §3

[10] = tested on: barnyardgrass (Echinochloa crus-galli); experiment: Test E postemergence
Excerpt: as §2, §3

[11] = tested on: wild poinsettia (Euphorbia heterophylla); experiment: Test E postemergence
Excerpt: as §2, §3

[12] = tested on: Italian ryegrass (Lolium multiflorum); experiment: Test E postemergence
Excerpt: as §2, §3

[13] = tested on: fall panicum (Panicum dichotomiflorum); experiment: Test E postemergence
Excerpt: as §2, §3

[14] = tested on: waterhemp_RES2 (ALS & HPPD resistant common waterhemp, Amaranthus rudis); experiment: Test E postemergence
Excerpt: as §2, §3

[15] = tested on: arrowleaf sida (Sida rhombifolia); experiment: Test E postemergence
Excerpt: as §2, §3

[16] = tested on: waterhemp (common waterhemp, Amaranthus rudis); experiment: Test E postemergence
Excerpt: as §2, §3

[17] = tested on: waterhemp_RES1 (ALS & Triazine resistant common waterhemp, Amaranthus rudis); experiment: Test E postemergence
Excerpt: as §2, §3

[18] = tested on: palmer pigweed (Amaranthus palmeri); experiment: Test E postemergence
Excerpt: as §2, §3

corn (Zea mays) [19] = experiment: Test E postemergence
Excerpt: as §2, §3

Fc1cccc(Oc2ncc(Cl)cn2)c1Oc1ncc(C(F)(F)F)cn1 [Compound 43, 5-chloro-2-[5-fluoro-6-[[5-(trifluoromethyl)-2-pyrimidinyl]oxy]phenoxy]pyrimidine]
Plant response rating, Field Bindweed ([1]; 31 g ai/ha): 20
Plant response rating, Field Bindweed ([1]; 125 g ai/ha): 50
Plant response rating, Morningglory ([2]; 31 g ai/ha): 5
Plant response rating, Morningglory ([2]; 125 g ai/ha): 95
Plant response rating, Dayflower, VA ([3]; 31 g ai/ha): 25
Plant response rating, Dayflower, VA ([3]; 125 g ai/ha): 95
Plant response rating, Corn (corn (Zea mays) [4]; 31 g ai/ha): 0
Plant response rating, Corn (corn (Zea mays) [4]; 125 g ai/ha): 50
Plant response rating, Field Bindweed ([5]; 31 g ai/ha): 55
Plant response rating, Field Bindweed ([5]; 125 g ai/ha): 70
Plant response rating, Soybean (soybean (Glycine max); 31 g ai/ha): 70
Plant response rating, Soybean (soybean (Glycine max); 125 g ai/ha): 95
Plant response rating, Horseweed ([6]; 31 g ai/ha): 0
Plant response rating, Horseweed ([6]; 125 g ai/ha): 10
Plant response rating, Kochia (kochia (Kochia scoparia); 31 g ai/ha): 75
Plant response rating, Kochia (kochia (Kochia scoparia); 125 g ai/ha): 95
Plant response rating, Dayflower, VA ([7]; 31 g ai/ha): 50
Plant response rating, Dayflower, VA ([7]; 125 g ai/ha): 70
Plant response rating, Beggarticks ([8]; 31 g ai/ha): 50
Plant response rating, Beggarticks ([8]; 125 g ai/ha): 60
Plant response rating, Sandbur ([9]; 31 g ai/ha): 0
Plant response rating, Sandbur ([9]; 125 g ai/ha): 10
Plant response rating, Barnyardgrass ([10]; 31 g ai/ha): 0
Plant response rating, Barnyardgrass ([10]; 125 g ai/ha): 15
Plant response rating, Poinsettia, Wild ([11]; 31 g ai/ha): 60
Plant response rating, Poinsettia, Wild ([11]; 125 g ai/ha): 75
Plant response rating, Ryegrass, Italian ([12]; 31 g ai/ha): 0
Plant response rating, Ryegrass, Italian ([12]; 125 g ai/ha): 20
Plant response rating, Panicum, Fall ([13]; 31 g ai/ha): 40
Plant response rating, Panicum, Fall ([13]; 125 g ai/ha): 50
Plant response rating, Waterhemp_RES2 ([14]; 31 g ai/ha): 65
Plant response rating, Waterhemp_RES2 ([14]; 125 g ai/ha): 80
Plant response rating, Arrowleaf Sida ([15]; 31 g ai/ha): 80
Plant response rating, Arrowleaf Sida ([15]; 125 g ai/ha): 95
Plant response rating, Waterhemp ([16]; 31 g ai/ha): 65
Plant response rating, Waterhemp ([16]; 125 g ai/ha): 95
Plant response rating, Waterhemp_RES1 ([17]; 31 g ai/ha): 65
Plant response rating, Waterhemp_RES1 ([17]; 125 g ai/ha): 80
Plant response rating, Pigweed, Palmer ([18]; 31 g ai/ha): 80
Plant response rating, Pigweed, Palmer ([18]; 125 g ai/ha): 90
Plant response rating, Corn (corn (Zea mays) [19]; 31 g ai/ha): 5
Plant response rating, Corn (corn (Zea mays) [19]; 125 g ai/ha): 15

Fc1cccc(Oc2ncc(C(F)(F)F)cn2)c1Oc1ncc(Cl)cn1 [Compound 42, 5-chloro-2-[2-fluoro-6-[[5-(trifluoromethyl)-2-pyrimidinyl]oxy]phenoxy]pyrimidine]
Plant response rating, Field Bindweed ([1]; 16 g ai/ha): 25
Plant response rating, Field Bindweed ([1]; 31 g ai/ha): 20
Plant response rating, Field Bindweed ([1]; 62 g ai/ha): 40
Plant response rating, Field Bindweed ([1]; 125 g ai/ha): 85
Plant response rating, Morningglory ([2]; 16 g ai/ha): 0
Plant response rating, Morningglory ([2]; 31 g ai/ha): 35
Plant response rating, Morningglory ([2]; 62 g ai/ha): 70
Plant response rating, Morningglory ([2]; 125 g ai/ha): 95
Plant response rating, Dayflower, VA ([3]; 16 g ai/ha): 0
Plant response rating, Dayflower, VA ([3]; 31 g ai/ha): 20
Plant response rating, Dayflower, VA ([3]; 62 g ai/ha): 90
Plant response rating, Dayflower, VA ([3]; 125 g ai/ha): 95
Plant response rating, Corn (corn (Zea mays) [4]; 16 g ai/ha): 0
Plant response rating, Corn (corn (Zea mays) [4]; 31 g ai/ha): 0
Plant response rating, Corn (corn (Zea mays) [4]; 62 g ai/ha): 35
Plant response rating, Corn (corn (Zea mays) [4]; 125 g ai/ha): 65
Plant response rating, Field Bindweed ([5]; 16 g ai/ha): 40
Plant response rating, Field Bindweed ([5]; 31 g ai/ha): 50
Plant response rating, Field Bindweed ([5]; 62 g ai/ha): 60
Plant response rating, Field Bindweed ([5]; 125 g ai/ha): 70
Plant response rating, Soybean (soybean (Glycine max); 16 g ai/ha): 50
Plant response rating, Soybean (soybean (Glycine max); 31 g ai/ha): 60
Plant response rating, Soybean (soybean (Glycine max); 62 g ai/ha): 95
Plant response rating, Soybean (soybean (Glycine max); 125 g ai/ha): 95
Plant response rating, Horseweed ([6]; 16 g ai/ha): 0
Plant response rating, Horseweed ([6]; 31 g ai/ha): 0
Plant response rating, Horseweed ([6]; 62 g ai/ha): 10
Plant response rating, Horseweed ([6]; 125 g ai/ha): 10
Plant response rating, Kochia (kochia (Kochia scoparia); 16 g ai/ha): 70
Plant response rating, Kochia (kochia (Kochia scoparia); 31 g ai/ha): 80
Plant response rating, Kochia (kochia (Kochia scoparia); 62 g ai/ha): 95
Plant response rating, Kochia (kochia (Kochia scoparia); 125 g ai/ha): 95
Plant response rating, Dayflower, VA ([7]; 16 g ai/ha): 35
Plant response rating, Dayflower, VA ([7]; 31 g ai/ha): 50
Plant response rating, Dayflower, VA ([7]; 62 g ai/ha): 70
Plant response rating, Dayflower, VA ([7]; 125 g ai/ha): 75
Plant response rating, Beggarticks ([8]; 16 g ai/ha): 50
Plant response rating, Beggarticks ([8]; 31 g ai/ha): 60
Plant response rating, Beggarticks ([8]; 62 g ai/ha): 60
Plant response rating, Beggarticks ([8]; 125 g ai/ha): 70
Plant response rating, Sandbur ([9]; 16 g ai/ha): 0
Plant response rating, Sandbur ([9]; 31 g ai/ha): 0
Plant response rating, Sandbur ([9]; 62 g ai/ha): 0
Plant response rating, Sandbur ([9]; 125 g ai/ha): 10
Plant response rating, Barnyardgrass ([10]; 16 g ai/ha): 0
Plant response rating, Barnyardgrass ([10]; 31 g ai/ha): 0
Plant response rating, Barnyardgrass ([10]; 62 g ai/ha): 10
Plant response rating, Barnyardgrass ([10]; 125 g ai/ha): 20
Plant response rating, Poinsettia, Wild ([11]; 16 g ai/ha): 50
Plant response rating, Poinsettia, Wild ([11]; 31 g ai/ha): 60
Plant response rating, Poinsettia, Wild ([11]; 62 g ai/ha): 70
Plant response rating, Poinsettia, Wild ([11]; 125 g ai/ha): 70
Plant response rating, Ryegrass, Italian ([12]; 16 g ai/ha): 0
Plant response rating, Ryegrass, Italian ([12]; 31 g ai/ha): 10
Plant response rating, Ryegrass, Italian ([12]; 62 g ai/ha): 20
Plant response rating, Ryegrass, Italian ([12]; 125 g ai/ha): 40
Plant response rating, Panicum, Fall ([13]; 16 g ai/ha): 10
Plant response rating, Panicum, Fall ([13]; 31 g ai/ha): 15
Plant response rating, Panicum, Fall ([13]; 62 g ai/ha): 20
Plant response rating, Panicum, Fall ([13]; 125 g ai/ha): 30
Plant response rating, Waterhemp_RES2 ([14]; 16 g ai/ha): 50
Plant response rating, Waterhemp_RES2 ([14]; 31 g ai/ha): 65
Plant response rating, Waterhemp_RES2 ([14]; 62 g ai/ha): 85
Plant response rating, Waterhemp_RES2 ([14]; 125 g ai/ha): 95
Plant response rating, Arrowleaf Sida ([15]; 16 g ai/ha): 75
Plant response rating, Arrowleaf Sida ([15]; 31 g ai/ha): 85
Plant response rating, Arrowleaf Sida ([15]; 62 g ai/ha): 95
Plant response rating, Arrowleaf Sida ([15]; 125 g ai/ha): 98
Plant response rating, Waterhemp ([16]; 16 g ai/ha): 75
Plant response rating, Waterhemp ([16]; 31 g ai/ha): 85
Plant response rating, Waterhemp ([16]; 62 g ai/ha): 90
Plant response rating, Waterhemp ([16]; 125 g ai/ha): 95
Plant response rating, Waterhemp_RES1 ([17]; 16 g ai/ha): 60
Plant response rating, Waterhemp_RES1 ([17]; 31 g ai/ha): 75
Plant response rating, Waterhemp_RES1 ([17]; 62 g ai/ha): 75
Plant response rating, Waterhemp_RES1 ([17]; 125 g ai/ha): 90
Plant response rating, Pigweed, Palmer ([18]; 16 g ai/ha): 80
Plant response rating, Pigweed, Palmer ([18]; 31 g ai/ha): 85
Plant response rating, Pigweed, Palmer ([18]; 62 g ai/ha): 95
Plant response rating, Pigweed, Palmer ([18]; 125 g ai/ha): 100
Plant response rating, Corn (corn (Zea mays) [19]; 16 g ai/ha): 5
Plant response rating, Corn (corn (Zea mays) [19]; 31 g ai/ha): 10
Plant response rating, Corn (corn (Zea mays) [19]; 62 g ai/ha): 10
Plant response rating, Corn (corn (Zea mays) [19]; 125 g ai/ha): 15
